Like-named read-outs stand apart in the source and are kept apart here.
System: subjects with MDD at imminent risk for suicide
Settings: 84 mg
[1] = TEAE, double-blind phase, N = 35
[2] = adverse event, follow up phase, N = 27
[3] = overall summary, double-blind phase, N = 35
[4] = serious TEAE, double-blind phase, N = 35
[5] = serious adverse event, follow up phase, N = 27

In the case of `CN[C@]1(c2ccccc2Cl)CCCCC1=O` [esketamine, (S)-2-(2-chlorophenyl)-2-(methylamino)cyclohexanone], the “Vertigo: no. of subjects” value [1] is reported as 4, the “Vision blurred: % of subjects” value [1] is reported as “(8.6%)” and the “Vision blurred: no. of subjects” value [1] is reported as 3. For the same compound, the “Vomiting: % of subjects” value [1] was “(20.0%)”, the “Vomiting: no. of subjects” value [1] was 7 and the “Weight increased: % of subjects” value [1] was “(5.7%)”. For the same compound, the “Weight increased: no. of subjects” value [1] was 2, the “Abdominal pain: % of subjects” value [2] was “(3.7%)” and the “Abdominal pain: no. of subjects” value [2] was 1. The “Abdominal tenderness: % of subjects” value [2] was “(3.7%)”, the “Abdominal tenderness: no. of subjects” value [2] was 1 and the “Aphthous ulcer: no. of subjects” value [2] was 0. For the same compound, the “Back pain: % of subjects” value [2] was “(3.7%)”, the “Back pain: no. of subjects” value [2] was 1 and the “Bronchitis: no. of subjects” value [2] was 0. For the same compound, the “Cellulitis: no. of subjects” value [2] was 0, the “Cogwheel rigidity: % of subjects” value [2] was “(3.7%)” and the “Cogwheel rigidity: no. of subjects” value [2] was 1. The “Contusion: % of subjects” value [2] was “(3.7%)”, the “Contusion: no. of subjects” value [2] was 1 and the “Depressed mood: no. of subjects” value [2] was 0. For the same compound, the “Depression: % of subjects” value [2] was “(3.7%)”, the “Depression: no. of subjects” value [2] was 1 and the “Diarrhea: % of subjects” value [2] was “(3.7%)”. The “Diarrhea: no. of subjects” value [2] was 1, the “Dizziness: % of subjects” value [2] was “(3.7%)” and the “Dizziness: no. of subjects” value [2] was 1. For the same compound, the “Drug hypersensitivity: no. of subjects” value [2] was 0, the “Dry mouth: % of subjects” value [2] was “(7.4%)” and the “Dry mouth: no. of subjects” value [2] was 2. The “Dysgeusia: % of subjects” value [2] was “(3.7%)”, the “Dysgeusia: no. of subjects” value [2] was 1 and the “Ear and labyrinth disorders: no. of subjects” value [2] was 0. The “Ear infection: % of subjects” value [2] was “(3.7%)”, the “Ear infection: no. of subjects” value [2] was 1 and the “Epistaxis: % of subjects” value [2] was “(3.7%)”. The “Epistaxis: no. of subjects” value [2] was 1, the “Flank pain: % of subjects” value [2] was “(3.7%)” and the “Flank pain: no. of subjects” value [2] was 1. The “Folliculitis: no. of subjects” value [2] was 0, the “Gastrointestinal disorders: % of subjects” value [2] was “(22.2%)” and the “Gastrointestinal disorders: no. of subjects” value [2] was 6. For the same compound, the “Headache: % of subjects” value [2] was “(7.4%)”, the “Headache: no. of subjects” value [2] was 2 and the “Immune system disorders: no. of subjects” value [2] was 0. For the same compound, the “Infections and infestations: % of subjects” value [2] was “(11.1%)”, the “Infections and infestations: no. of subjects” value [2] was 3 and the “Influenza: no. of subjects” value [2] was 0. For the same compound, the “Injury, poisoning and procedural complications: % of subjects” value [2] was “(7.4%)”, the “Injury, poisoning and procedural complications: no. of subjects” value [2] was 2 and the “Insomnia: % of subjects” value [2] was “(11.1%)”. The “Insomnia: no. of subjects” value [2] was 3, the “Intentional self-injury: % of subjects” value [2] was “(3.7%)” and the “Intentional self-injury: no. of subjects” value [2] was 1. The “Loss of consciousness: % of subjects” value [2] was “(3.7%)”, the “Loss of consciousness: no. of subjects” value [2] was 1 and the “Meniere's disease: no. of subjects” value [2] was 0. The “Metabolism and nutrition disorders: no. of subjects” value [2] was 0, the “Migraine: % of subjects” value [2] was “(3.7%)” and the “Migraine: no. of subjects” value [2] was 1. For the same compound, the “Musculoskeletal and connective tissue disorders: % of subjects” value [2] was “(7.4%)”, the “Musculoskeletal and connective tissue disorders: no. of subjects” value [2] was 2 and the “Musculoskeletal chest pain: % of subjects” value [2] was “(3.7%)”. The “Musculoskeletal chest pain: no. of subjects” value [2] was 1, the “Musculoskeletal pain: % of subjects” value [2] was “(3.7%)” and the “Musculoskeletal pain: no. of subjects” value [2] was 1. For the same compound, the “Nasal congestion: % of subjects” value [2] was “(3.7%)”, the “Nasal congestion: no. of subjects” value [2] was 1 and the “Nasopharyngitis: % of subjects” value [2] was “(3.7%)”. For the same compound, the “Nasopharyngitis: no. of subjects” value [2] was 1, the “Nausea: no. of subjects” value [2] was 0 and the “Neck pain: % of subjects” value [2] was “(3.7%)”. For the same compound, the “Neck pain: no. of subjects” value [2] was 1, the “Nervous system disorders: % of subjects” value [2] was “(22.2%)” and the “Nervous system disorders: no. of subjects” value [2] was 6. The “Night sweats: % of subjects” value [2] was “(3.7%)”, the “Night sweats: no. of subjects” value [2] was 1 and the “Panic reaction: no. of subjects” value [2] was 0. For the same compound, the “Pelvic pain: % of subjects” value [2] was “(3.7%)”, the “Pelvic pain: no. of subjects” value [2] was 1 and the “Pharyngitis: % of subjects” value [2] was “(7.4%)”. For the same compound, the “Pharyngitis: no. of subjects” value [2] was 2, the “Polydipsia: no. of subjects” value [2] was 0 and the “Procedural pain: no. of subjects” value [2] was 0. For the same compound, the “Psychiatric disorders: % of subjects” value [2] was “(18.5%)”, the “Psychiatric disorders: no. of subjects” value [2] was 5 and the “Rash: no. of subjects” value [2] was 0. For the same compound, the “Renal and urinary disorders: no. of subjects” value [2] was 0, the “Renal failure: no. of subjects” value [2] was 0 and the “Reproductive system and breast disorders: % of subjects” value [2] was “(3.7%)”. For the same compound, the “Reproductive system and breast disorders: no. of subjects” value [2] was 1, the “Respiratory, thoracic and mediastinal disorders: % of subjects” value [2] was “(7.4%)” and the “Respiratory, thoracic and mediastinal disorders: no. of subjects” value [2] was 2. The “Restlessness: % of subjects” value [2] was “(3.7%)”, the “Restlessness: no. of subjects” value [2] was 1 and the “Road traffic accident: % of subjects” value [2] was “(3.7%)”. For the same compound, the “Road traffic accident: no. of subjects” value [2] was 1, the “Sedation: % of subjects” value [2] was “(3.7%)” and the “Sedation: no. of subjects” value [2] was 1. The “Self-injurious ideation: no. of subjects” value [2] was 0, the “Sexual dysfunction: no. of subjects” value [2] was 0 and the “Skin and subcutaneous tissue disorders: % of subjects” value [2] was “(3.7%)”. For the same compound, the “Skin and subcutaneous tissue disorders: no. of subjects” value [2] was 1, the “Somnolence: no. of subjects” value [2] was 0 and the “Suicidal ideation: % of subjects” value [2] was “(3.7%)”. The “Suicidal ideation: no. of subjects” value [2] was 1, the “Suicide attempt: no. of subjects” value [2] was 0 and the “Tooth impacted: no. of subjects” value [2] was 0. For the same compound, the “Toothache: no. of subjects” value [2] was 0, the “Total no. subjects with adverse events: % of subjects” value [2] was “(48.1%)” and the “Total no. subjects with adverse events: no. of subjects” value [2] was 13. For the same compound, the “Tremor: % of subjects” value [2] was “(7.4%)”, the “Tremor: no. of subjects” value [2] was 2 and the “Upper respiratory tract infection: % of subjects” value [2] was “(3.7%)”. For the same compound, the “Upper respiratory tract infection: no. of subjects” value [2] was 1, the “Viral upper respiratory tract infection: no. of subjects” value [2] was 0 and the “Vomiting: % of subjects” value [2] was “(3.7%)”. For the same compound, the “Vomiting: no. of subjects” value [2] was 1, the “Vulvovaginal mycotic infection: % of subjects” value [2] was “(3.7%)” and the “Vulvovaginal mycotic infection: no. of subjects” value [2] was 1. The “1 or more serious TEAE: % of subjects” value [3] was 11.4%, the “1 or more serious TEAE: no. of subjects” value [3] was 4 and the “Possibly related TEAE: % of subjects” value [3] was 82.9%. The “Possibly related TEAE: no. of subjects” value [3] was 29, the “TEAE leading to death: no. of subjects” value [3] was 0 and the “TEAE leading to drug withdrawn: % of subjects” value [3] was 14.3%. The “TEAE leading to drug withdrawn: no. of subjects” value [3] was 5, the “TEAE: % of subjects” value [3] was 94.3% and the “TEAE: no. of subjects” value [3] was 33. For the same compound, the “Agitation: % of subjects” value [4] was 2.9%, the “Agitation: no. of subjects” value [4] was 1 and the “Depressive symptom: % of subjects” value [4] was 2.9%. For the same compound, the “Depressive symptom: no. of subjects” value [4] was 1, the “Psychiatric disorders: % of subjects” value [4] was 11.4% and the “Psychiatric disorders: no. of subjects” value [4] was 4. The “Suicidal ideation: % of subjects” value [4] was 5.7%, the “Suicidal ideation: no. of subjects” value [4] was 2 and the “Total no. subjects with a serious TEAE: % of subjects” value [4] was 11.4%. The “Total no. subjects with a serious TEAE: no. of subjects” value [4] was 4, the “Cellulitis: no. of subjects” value [5] was 0 and the “Infections and infestations: no. of subjects” value [5] was 0. The “Psychiatric disorders: % of subjects” value [5] was 3.7%, the “Psychiatric disorders: no. of subjects” value [5] was 1 and the “Suicidal ideation: % of subjects” value [5] was 3.7%. For the same compound, the “Suicidal ideation: no. of subjects” value [5] was 1, the “Suicide attempt: no. of subjects” value [5] was 0 and the “Total no. subjects with a serious adverse event: % of subjects” value [5] was 3.7%. For the same compound, the “Total no. subjects with a serious adverse event: no. of subjects” value [5] was 1.

— patent publication US11883526B2 (priority 2019, dated 2024)
